Measurements from patent US12419305B2, “Antimicrobial compositions” (Firmenich SA, priority 2018, dated 2025).

Experiments:
S. aureus ATCC 6538 = assay: BCT test (bacterial contact time), 60 s, log reduction / effect fraction; CI by Compusyn; type: cell-based, Staphylococcus aureus; conditions: Staphylococcus aureus, ATCC6538, 1 min, 60 s, in 25% EtOH; for log reduction at 0.3 % strength: dose 0.300 % w/v; for log reduction at 0.35 % strength: dose 0.350 % w/v; for log reduction at 0.4 % strength: dose 0.400 % w/v; for log reduction at 0.45 % strength: dose 0.45 % w/v
Protocol: (§1) E. coli, S. aureus, P. aeruginosa, and S. enterica: Separate suspensions of the E. coli ATCC 10536 strain, S. aureus ATCC 6538 strain, Pseudomonas aeruginosa ATCC 15442 strain, and the Salmonella enterica ATCC 10708 strain were prepared as follows: Stock cultures (stored at −80° C.) were thawed and sub-cultured onto Tryptic Soy Agar (TSA) agar plate media, and incubated at 37° C. for 24 h to obtain single colonies. Single colonies of the primary cultures were streaked onto TSA plates and incubated at 37° for 24 h to generate secondary cultures. Single colonies of secondary cultures picked and used to inoculate into 50 mL of TSB broth. The inoculated TSB broth was incubated at 37° C. at 180 rpm for 18 h. Aliquots (0.5 ml) of the 18 h culture were inoculated into 50 ml of fresh TSB broth, and incubated at 37° C. at 180 rpm for 2-3 hours. When the OD600 nm value of the broth reached 1-2, cells were harvested by centrifugation at 5000 rpm for 10 min, and then resuspended in fresh TSB broth at a concentration of 1-5×10^8 CFU/mL. These suspensions were used as the bacterial suspensions for the BCT test.
(§2) BCT Test: Test compositions at a range of concentrations (either combinations of more than one perfume ingredient, and comparative compositions comprising the single perfume ingredients) were prepared in ethanol. Five replicates of each test composition were added into 96-well microtiter plates (120 μl per well), with row B containing control compositions containing the ethanol solution alone. 120 μl of bacterial cell suspensions at a concentration of approximately 1×10^8 bacteria per mL (as prepared above) were added to each well of the microtiter plate. The bacterial suspensions were incubated with the test solutions for 45, 60, or 120 seconds. Following the incubation of the bacterial suspensions with the test solutions, serial dilutions of the bacterial suspensions were generated (three serial 1:10 dilutions, followed by 17 serial 1:2 dilutions), in multiwell microtiter plates.
(§3) Each plate was sealed and incubated at 37° C. under agitation (180 rpm). After incubation, the turbidity of the wells (OD600 nm) was determined using a Tecan microplate reader. Turbid wells were regarded as positive growth, due to the presence of viable cells. The total number of viable cells (log CFU) for each sample was calculated. And the log reduction for each test composition at the final concentration (dose) was calculated against the control sample of the ethanol solution.
(§4) Determination of Synergy via the Combination Index (CI): The CI was calculated using Compusyn software (ComboSyn, Inc., as created by Dr. Dorothy Chou in 2005), according to the manufacturer's instructions. The concentration of each test composition (combinations of more than one perfume ingredient, and comparative compositions comprising the single perfume ingredients used to generate the combination) and their corresponding effect fraction was entered, and the corresponding CI calculated.
(§5) When the calculated CI values were less than 0.9, the combination of perfume ingredients was regarded as having synergistic effect. When the calculated CI was between 1.0 a 0.9, the combination of perfume ingredients was regarded as having an additive effect. When the calculated CI was greater than 1.0, the combination of perfume ingredients was regarded as having an antagonistic effect.

[1] = system: Salmonella enterica ATCC 10708; assay: as above; type: cell-based; conditions: Salmonella enterica, ATCC10708, 1 min, BCT 60 s, in 25% EtOH; for log reduction at 0.15 % strength: Dose 0.15 % w/v; for log reduction at 0.2 % strength: Dose 0.2 % w/v; for log reduction at 0.25 % strength: Dose 0.25 % w/v; for log reduction at 0.3 % strength: Dose 0.3 % w/v
Protocol: as §1, §2, §3, §4, §5

[2] = system: Pseudomonas aeruginosa ATCC 15442; assay: as above; type: cell-based; conditions: Pseudomonas aeruginosa, ATCC15442, 1 min, BCT 60 s, in 25% EtOH; for log reduction at 0.25 % strength: Dose 0.25 % w/v; for log reduction at 0.4 % strength: Dose 0.4 % w/v; for log reduction at 0.5 % strength: Dose 0.5 % w/v; for log reduction at 0.3 % strength: Dose 0.3 % w/v
Protocol: as §1, §2, §3, §4, §5

S. haemolyticus 114126 = assay: BCT test (bacterial contact time), 120 s, log reduction / effect fraction; CI by Compusyn; type: cell-based; conditions: Staphylococcus haemolyticus, 114126, 2 min, contact 120 s, 25% EtOH; for log reduction at 0.25 % strength: dose 0.25% w/v; for log reduction at 0.5 % strength: dose 0.5% w/v
Protocol: S. haemolyticus: Suspensions of the S. haemolyticus 114126 strain, isolated from skin, were prepared as follows: Stock cultures (stored at −80° C.) were thawed and sub-cultured onto TSA-TW80 agar plate media, and incubated at 37° C. for 24 h to obtain single colonies. Single colonies of the primary cultures were streaked onto fresh TSA-TW80 plates and incubated at 37° C. for 24 h to prepare secondary cultures. Single colonies of secondary cultures were picked and used to inoculate 50 mL of BHI-TW80 broth. The inoculated broth was incubated at 37° C. at 180 rpm for 18 h. Aliquots (0.5 ml) of the 18 h culture were inoculated into 50 ml of fresh BHI-TW80 broth, and incubated at 37° C. at 180 rpm for approximately 3 hours. When the OD 600 nm value of the broth reached 1-2, cells were harvested by centrifugation at 5000 rpm for 10 min, and then resuspended in fresh BHI-TW80 broth at a concentration of 1-5×10^8 CFU/mL. This suspension was used as the bacterial suspension for the BCT test.
as §2, §3, §4, §5

E. coli ATCC 10536 = assay: BCT test (bacterial contact time), 45 s, log reduction / effect fraction; CI by Compusyn; type: cell-based, Escherichia coli; conditions: Escherichia coli, ATCC10536, 45 s, 45 s, in 20% EtOH
Protocol: as §1, §2, §3, §4, §5

## CC(=O)OCc1ccccc1 [Benzyl acetate, benzyl acetate]
S. aureus ATCC 6538; dose 0.250 % w/v, read-out: Log reduction
  log reduction at 0.25 % strength: 0.8
S. aureus ATCC 6538; read-out: Log reduction
  log reduction at 0.3 % strength: 1.9
  log reduction at 0.35 % strength: 5.1
  log reduction at 0.4 % strength: 6.7
S. aureus ATCC 6538
  log reduction at 0.45 % strength: 7.1
[1]
  log reduction at 0.15 % strength: 0
  log reduction at 0.2 % strength: 1.9
  log reduction at 0.25 % strength: 6.5
  log reduction at 0.3 % strength: 7.7
[1]; Dose 0.225 % w/v
  log reduction at 0.225 % strength: 5
[2]; Dose 0.2 % w/v, read-out: Log reduction
  log reduction at 0.2 % strength: 1.2
[2]; read-out: Log reduction
  log reduction at 0.25 % strength: 3.9
  log reduction at 0.4 % strength: 7.4
[2]; Dose 0.45 % w/v, read-out: Log reduction
  log reduction at 0.45 % strength: 7.4
[2]
  log reduction at 0.5 % strength: 7.4
S. haemolyticus 114126; read-out: Log reduction
  log reduction at 0.25 % strength: 0.2
S. haemolyticus 114126; dose 0.3% w/v, read-out: Log reduction
  log reduction at 0.3 % strength: 0.5
S. haemolyticus 114126; dose 0.35% w/v
  log reduction at 0.35 % strength: 1.3
S. haemolyticus 114126; dose 0.4% w/v, read-out: Log reduction
  log reduction at 0.4 % strength: 2.5
S. haemolyticus 114126
  log reduction at 0.5 % strength: 6.2

## Cc1ccc2c(c1)OCC(=O)CO2 [Calone, 7-methyl-2H-1,5-benzodioxepin-3(4H)-one]
S. aureus ATCC 6538; dose 0.600 % w/v, read-out: Log reduction
  log reduction at 0.6 % strength: 1.6
S. aureus ATCC 6538; dose 0.700 % w/v, read-out: Log reduction
  log reduction at 0.7 % strength: 2.5
S. aureus ATCC 6538; dose 0.800 % w/v
  log reduction at 0.8 % strength: 6.9
S. aureus ATCC 6538; dose 0.900 % w/v
  log reduction at 0.9 % strength: 6.9
S. aureus ATCC 6538; dose 1.000 % w/v, read-out: Log reduction
  log reduction at 1 % strength: 6.9
[1]
  log reduction at 0.25 % strength: 0.7
  log reduction at 0.3 % strength: 2.7
[1]; Dose 0.350 % w/v
  log reduction at 0.35 % strength: 4.2
[1]; Dose 0.4 % w/v
  log reduction at 0.4 % strength: 7.2
[1]; Dose 0.450 % w/v
  log reduction at 0.45 % strength: 7.8
[2]; read-out: Log reduction
  log reduction at 0.25 % strength: 0.3
  log reduction at 0.3 % strength: 1
  log reduction at 0.4 % strength: 4.3
[2]; Dose 0.35 % w/v
  log reduction at 0.35 % strength: 2.7
[2]
  log reduction at 0.5 % strength: 6.9
S. haemolyticus 114126
  log reduction at 0.5 % strength: 0
S. haemolyticus 114126; dose 0.7% w/v
  log reduction at 0.7 % strength: 0.5
S. haemolyticus 114126; dose 0.8% w/v
  log reduction at 0.8 % strength: 2.9
S. haemolyticus 114126; dose 0.9% w/v
  log reduction at 0.9 % strength: 4.7
S. haemolyticus 114126; dose 1.2% w/v
  log reduction at 1.2 % strength: 6.9

## OC/C=C/c1ccccc1 [Cinnamic alcohol, (2E)-3-phenyl-2-propen-1-ol]
S. aureus ATCC 6538; read-out: Log reduction
  log reduction at 0.3 % strength: 1.8
  log reduction at 0.35 % strength: 2.6
  log reduction at 0.4 % strength: 5.5
S. aureus ATCC 6538
  log reduction at 0.45 % strength: 6.9
S. aureus ATCC 6538; dose 0.500 % w/v, read-out: Log reduction
  log reduction at 0.5 % strength: 6.9
[1]
  log reduction at 0.15 % strength: 0.5
  log reduction at 0.2 % strength: 1.5
  log reduction at 0.25 % strength: 4.9
  log reduction at 0.3 % strength: 7.8
[1]; Dose 0.175 % w/v
  log reduction at 0.175 % strength: 1
[2]; read-out: Log reduction
  log reduction at 0.25 % strength: 4.1
  log reduction at 0.3 % strength: 6.7
  log reduction at 0.4 % strength: 7.5
S. haemolyticus 114126; read-out: Log reduction
  log reduction at 0.25 % strength: 0.2
S. haemolyticus 114126
  log reduction at 0.5 % strength: 4.1
S. haemolyticus 114126; dose 1.0% w/v
  log reduction at 1 % strength: 7.3
S. haemolyticus 114126; dose 1.25% w/v
  log reduction at 1.25 % strength: 7.3
S. haemolyticus 114126; dose 1.5% w/v
  log reduction at 1.5 % strength: 7.3
E. coli ATCC 10536; dose 0.200 % w/v
  log reduction at 0.2 % strength: 0.1
E. coli ATCC 10536; dose 0.250 % w/v
  log reduction at 0.25 % strength: 0.6
E. coli ATCC 10536; dose 0.300 % w/v
  log reduction at 0.3 % strength: 1.4
E. coli ATCC 10536; dose 0.350 % w/v
  log reduction at 0.35 % strength: 4.2
E. coli ATCC 10536; dose 0.400 % w/v
  log reduction at 0.4 % strength: 7.3
